# Assay results from PubChem BioAssay (NCI).
#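 These data come from cells grown in 96-well plates and exposed to compound for 48 hours at five concentrations. At the GI50, growth is halved. At the TGI there is no net growth.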
# What was measured:
# Assay in all cases: NCI anticancer screen, dose series, 48 h
# SK-MEL-2 melanoma = tested on: SK-MEL-2 melanoma
# NCI-H23 lung = tested on: NCI-H23 lung
# OVCAR-3 ovarian = tested on: OVCAR-3 ovarian
# NCI-H522 lung = tested on: NCI-H522 lung
# SNB-75 CNS = tested on: SNB-75 CNS
# 786-0 renal = tested on: 786-0 renal
# SF-268 CNS = tested on: SF-268 CNS
# T-47D breast = tested on: T-47D breast
# SR leukemia = tested on: SR leukemia
# HOP-92 NSCLC = tested on: HOP-92 NSCLC
Structure (SMILES),TGI (SK-MEL-2 melanoma) [µM],TGI (NCI-H23 lung) [µM],TGI (OVCAR-3 ovarian) [µM],TGI (NCI-H522 lung) [µM],TGI (SNB-75 CNS) [µM],TGI (786-0 renal) [µM],TGI (SF-268 CNS) [µM],GI50 (SK-MEL-2 melanoma) [µM],GI50 (NCI-H23 lung) [µM],GI50 (OVCAR-3 ovarian) [µM],GI50 (NCI-H522 lung) [µM],GI50 (T-47D breast) [µM],TGI (T-47D breast) [µM],GI50 (SNB-75 CNS) [µM],GI50 (786-0 renal) [µM],GI50 (SR leukemia) [µM],TGI (SR leukemia) [µM],GI50 (SF-268 CNS) [µM],TGI (HOP-92 NSCLC) [µM],GI50 (HOP-92 NSCLC) [µM]
Cc1ccc([N+](=O)[O-])cc1NC(=O)c1cccc([N+](=O)[O-])c1O,33.9,48.4,64.6,26.6,43.7,> 100,83.9,–,–,–,–,–,–,–,–,–,–,–,–,–
O=C(Nc1ccc2[nH]c(=S)sc2c1)Nc1ccccc1F,> 100,> 100,> 100,38.4,> 100,> 100,> 100,26.7,35.8,34.8,10.3,4.47,33.4,22.9,51.6,17.5,> 100,38.2,–,–
Fc1ccccc1C1SCc2nc3ccccc3n21 (stereo unspecified),> 100,> 100,> 100,> 100,> 100,> 100,> 100,–,–,–,–,–,–,–,–,–,> 100,–,72.7,–
NCCN.NCCN.O=C([O-])CCl.O=C([O-])CCl.[Co+3].[O-][Cl+3]([O-])([O-])[O-],> 100,> 100,> 100,> 100,> 100,> 100,> 100,> 100,> 100,> 100,> 100,–,–,74.7,> 100,–,–,> 100,> 100,> 100
O=S(=O)(c1cccc2c(Cl)cccc12)N1CCCNCC1,34.3,27.1,29.4,37.1,–,23.1,52.9,17.6,13.8,14.6,19.7,11.7,29.4,–,11.1,–,–,21.8,25.8,11
COc1ccc(S(=O)(=O)N/N=C/c2cc(I)cc([N+](=O)[O-])c2O)cc1OC,45.6,–,66.3,–,–,> 100,–,–,–,–,–,–,–,–,–,–,–,–,46,–
CCCCCCCCCCCCOC1C(C(COC2OC(C3COC(C)(C)O3)C3OC(C)(C)OC23)NC(=O)NS(=O)(=O)c2ccccc2)OC2OC(C)(C)OC21 (stereo unspecified),9.57,19.3,8.39,32.8,31.6,11.6,19.6,3.29,4.34,2.78,6.56,8.66,39.5,11.4,3.51,–,–,4.34,8.52,2.39
COc1ccc(CC(=O)NCCc2ccc(OC)c(OC)c2)cc1Br,> 100,> 100,–,> 100,–,> 100,> 100,–,–,–,–,–,–,–,–,–,> 100,–,> 100,–
Cc1cc(NS(=O)(=O)c2ccc(NC(=O)c3ccc(Cl)c4c(Nc5ccc(S(=O)(=O)N=C(N)N)cc5)c5ccccc5nc34)cc2)no1,–,> 100,83.7,61.6,95.6,> 100,> 100,–,–,–,–,–,–,–,–,–,67.9,–,–,–
CN1CC[C@]2(C)c3cc(O)ccc3CC3CCCC1C32C (stereo partly specified),–,> 100,> 100,> 100,> 100,> 100,> 100,–,–,–,–,–,–,–,–,–,> 100,–,> 100,–
COc1cc(C(O)C(=O)c2nc3ccc([N+](=O)[O-])cc3[nH]c2=O)ccc1O (stereo unspecified),> 100,> 100,> 100,> 100,–,> 100,> 100,–,–,–,–,–,–,–,–,–,> 100,–,–,–
CC(C)(CN1CCCCC1)C(=O)/C=C/c1ccc(Cl)cc1,–,6.76,11.9,9.9,11.4,9.68,12.1,–,–,–,–,–,–,–,–,–,7.15,–,4.64,–
Cc1c(C(=O)CC(=O)C(=O)Nc2ccc(Cl)cc2)[n+](=O)c2ccccc2n1[O-],> 100,> 100,> 100,> 100,> 100,> 100,> 100,–,–,–,–,–,–,–,–,–,–,–,> 100,–
CNCCNc1c2c(c(NCCNC)c3[nH]ccc13)C(=O)c1ccccc1C2=O,2.55,0.558,0.887,0.339,8.86,0.821,0.876,0.581,0.197,0.174,0.117,11.4,> 27,3.5,0.0646,–,–,0.222,2.37,0.418
CC(NCCC(=O)N(CCC(=O)N(CCC(=O)N(CCC(=O)N(CCC(=O)N(CCC(=O)N(CCC(=O)N(CCC(=O)N(CCC(=O)N(CCC(=O)O)[C@H](C)c1ccccc1)[C@H](C)c1ccccc1)[C@H](C)c1ccccc1)[C@H](C)c1ccccc1)[C@H](C)c1ccccc1)[C@H](C)c1ccccc1)[C@H](C)c1ccccc1)[C@H](C)c1ccccc1)[C@H](C)c1ccccc1)c1ccccc1 (stereo partly specified),7.97,49.1,19.1,24.5,41.1,> 75,> 38.7,1.9,3.9,2.04,2.12,3.42,> 75,2.2,3.46,–,–,2.45,2.34,0.753
C/C=C1/CCC2c3[nH]c4ccccc4c3CCN2C1 (stereo unspecified),> 100,> 100,> 100,> 100,> 100,> 100,> 100,–,–,–,–,–,–,–,–,–,> 100,–,86.6,–
C=C1C(=O)OC2C=C(CCC(C)=O)C(C)C(OC(C)=O)CC12 (stereo unspecified),27.9,–,26,–,24.4,21.4,32.8,–,–,–,–,–,–,–,–,–,52.9,–,12.9,–
COc1ccc(S(=O)(=O)Nc2cc(/C=C\c3cc(OC)c(OC)c(OC)c3)ccc2OC)cc1,93,> 100,> 100,0.0564,91.4,95.6,> 100,0.0803,0.48,0.053,0.0204,–,–,0.0708,0.361,0.0709,4.18,0.401,12,0.0974
O=C(O)CCC(NC(=O)c1ccccc1)C(=O)O (stereo unspecified),> 100,> 100,> 100,> 100,> 100,> 100,> 100,–,–,–,–,–,–,–,–,–,> 100,–,> 100,–

Structure (SMILES),TGI (SK-MEL-2 melanoma) [µM],TGI (NCI-H23 lung) [µM],TGI (OVCAR-3 ovarian) [µM],TGI (NCI-H522 lung) [µM],TGI (SNB-75 CNS) [µM],TGI (786-0 renal) [µM],TGI (SF-268 CNS) [µM],GI50 (SK-MEL-2 melanoma) [µM],GI50 (NCI-H23 lung) [µM],GI50 (OVCAR-3 ovarian) [µM],GI50 (NCI-H522 lung) [µM],GI50 (T-47D breast) [µM],TGI (T-47D breast) [µM],GI50 (SNB-75 CNS) [µM],GI50 (786-0 renal) [µM],GI50 (SR leukemia) [µM],TGI (SR leukemia) [µM],GI50 (SF-268 CNS) [µM],TGI (HOP-92 NSCLC) [µM],GI50 (HOP-92 NSCLC) [µM]
O=C1CCCC(=O)N1CCc1c[nH]c2ccccc12,> 100,> 100,> 100,–,> 100,> 100,> 100,–,–,–,–,–,–,–,–,–,> 100,–,> 100,–
c1ccc2cc3[s+]snc3cc2c1,> 100,> 100,> 100,> 100,> 100,> 100,> 100,–,–,–,–,–,–,–,–,–,> 100,–,–,–
CN(C)CCNC(=O)c1cccc2[nH]c(-c3cccnc3)nc12,62.8,44.9,56.3,–,73.3,55.6,98.7,–,–,–,–,–,–,–,–,–,–,–,53.9,–
CCCC/C=C1\CCC(C)(CN(C)C)C1=O (stereo unspecified),> 100,> 100,> 100,75.9,–,> 100,> 100,–,–,–,–,–,–,–,–,–,> 100,–,> 100,–
O=C(NCCCCCCNC(=O)OCCSCCn1cc(C(=O)NC(=O)OCc2ccccc2)c(=O)[nH]c1=O)OCCSCCn1cc(C(=O)NC(=O)OCc2ccccc2)c(=O)[nH]c1=O,> 100,> 100,> 100,> 100,–,> 100,–,–,–,–,–,–,–,–,–,–,–,–,> 100,–
O=C(O)CCSC(=O)Nc1ccccc1F,> 100,> 100,> 100,> 100,–,> 100,> 100,–,–,–,–,–,–,–,–,–,> 100,–,–,–
FC(F)(F)c1ccc(C#Cc2ccccc2C#Cc2ccccc2)cc1,80,> 100,91.9,45.4,> 100,> 100,> 100,29.2,49,29.5,21.4,26.2,60.1,> 100,46.1,–,–,42.9,–,–
O=c1[nH]c(=O)c2cc(C3CC(O)C(CO)O3)ccc2[nH]1 (stereo unspecified),> 100,> 100,> 100,> 100,> 100,> 100,> 100,> 100,> 100,> 100,> 100,> 100,> 100,26.8,> 100,–,–,> 100,> 100,> 100
O=C1C2C=CC(C2)C(c2ccc(O)cc2)N1O (stereo unspecified),> 100,> 100,> 100,> 100,> 100,> 100,> 100,–,–,–,–,–,–,–,–,–,> 100,–,> 100,–
Cc1ccc(NC(=O)C(=O)CC(=O)c2c(C)n([O-])c3ccccc3[n+]2=O)cc1,53,56.6,35.1,46.1,58,> 100,96.2,–,–,–,–,–,–,–,–,–,49.8,–,> 100,–
O=c1nc(NC(c2ccccc2)(c2ccccc2)c2ccccc2)ccn1CCNCCn1ccc(NC(c2ccccc2)(c2ccccc2)c2ccccc2)nc1=O,9.32,26.8,58.3,21.5,> 100,31.5,32.4,–,–,–,–,–,–,–,–,–,–,–,24.4,–
Cc1[nH]c(=O)n2c(C)nnc2c1C(=O)Nc1cc(Cl)cc(Cl)c1,–,53,40.8,28.2,88.9,> 100,> 100,–,–,–,–,–,–,–,–,–,66.5,–,64,–
C[C@]12CCC(=O)C(O)=C1CC[C@@H]1C2CC[C@]2(C)Nc3c(cnn3-c3ccccc3)CC12 (stereo partly specified),> 100,> 100,> 100,–,> 100,> 100,–,–,–,–,–,–,–,–,–,–,–,–,–,–
Cc1ccc2nc(-c3ccccc3)c(N=O)n2c1,> 100,> 100,> 100,> 100,> 100,> 100,> 100,–,–,–,–,–,> 100,–,–,–,–,–,> 100,–
O=C(O)CNS(=O)(=O)c1ccc(NC(=O)CI)cc1,73.6,39.8,62,4.4,32.2,28.6,44.3,–,–,–,–,–,–,–,–,–,–,–,36.4,–
COC(=O)C1CCCN1C(=O)[C@@H]1CCCN1C(=O)[C@H](Cc1c[nH]c2ccccc12)NC(=S)Nc1cc(C(F)(F)F)cc(C(F)(F)F)c1 (stereo partly specified),4.25,10,3.85,4.99,8.92,6.86,13.6,2.24,2.78,2.03,2.15,1.98,7.2,2.48,2.52,1.92,5.03,3.46,–,–
COC(=O)[C@]12CC=C3O[C@@H]4OC5(CCCCC5)O[C@@H]4C3[C@@H]1C(=O)CCC2=O (stereo partly specified),> 100,> 100,> 100,> 100,> 100,> 100,> 100,–,–,–,–,–,–,–,–,–,–,–,> 100,–
COc1ccc(/C(=N\O)c2cc(C)c(OC)c(C)c2)cc1O,> 100,> 100,> 100,0.0101,–,> 100,> 100,0.0328,0.0314,< 0.01,< 0.01,–,–,–,0.0407,< 0.01,> 100,0.0222,> 100,0.41
COc1ccccc1C1c2cc3c(cc2OC(O)(CO)C1C(=O)O)OCO3 (stereo unspecified) (tested in a mixture with another compound),> 100,> 100,> 100,–,> 100,> 100,> 100,–,–,–,–,–,–,–,–,–,> 100,–,> 100,–
